Assay results as given in PubChem BioAssay AID330 (DTP/NCI, 2004).
“And” between values parts separate entries of the source, which are not always exact repeats. Equal entries are not always repeated. Toxic doses and inconclusive results are not listed. How the source made its calls: active means survival T/C of 150% or more; inactive means T/C below 125% in these data.

Test system: P388 leukemia ip, CD2F1 mice, survival T/C
Experiment: NCI In Vivo Anticancer Drug Screen. Data for tumor model P388 Leukemia (intraperitoneal) in CD2F1 (CDF1) mice
Settings: endpoint: median survival time, higher = longer survival
Summary of the method: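 Mice carrying the transplanted tumor received test compound or vehicle. Survival was recorded in each group, and the value is the treated-group measurement divided by that of the vehicle-treated control group.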

[1] = dose: 50.0 mg/kg/injection, schedule: Q01DX005 (ip), vehicle: saline
[2] = dose: 100.0 mg/kg/injection, schedule: Q01DX005 (ip), vehicle: saline
[3] = dose: 200.0 mg/kg/injection, schedule: Q01DX005 (ip), vehicle: saline
[4] = dose: 50.0 mg/kg/injection, schedule: Q01DX009 (ip), vehicle: Klucel (hydroxypropylcellulose) (HPC)
[5] = dose: 100.0 mg/kg/injection, schedule: Q01DX009 (ip), vehicle: Klucel (hydroxypropylcellulose) (HPC)
[6] = dose: 200.0 mg/kg/injection, schedule: Q01DX009 (ip), vehicle: Klucel (hydroxypropylcellulose) (HPC)
[7] = dose: 100.0 mg/kg/injection, schedule: Q01DX001 (ip), vehicle: Klucel (hydroxypropylcellulose) (HPC)
[8] = dose: 25.0 mg/kg/injection, schedule: Q01DX005 (ip), vehicle: Klucel (hydroxypropylcellulose) (HPC)
[9] = dose: 50.0 mg/kg/injection, schedule: Q01DX005 (ip), vehicle: Klucel (hydroxypropylcellulose) (HPC)
[10] = dose: 100.0 mg/kg/injection, schedule: Q01DX005 (ip), vehicle: Klucel (hydroxypropylcellulose) (HPC)
[11] = dose: 200.0 mg/kg/injection, schedule: Q01DX005 (ip), vehicle: Klucel (hydroxypropylcellulose) (HPC)
[12] = dose: 50.0 mg/kg/injection, schedule: Q01DX009 (ip), vehicle: saline with Tween-80
[13] = dose: 100.0 mg/kg/injection, schedule: Q01DX009 (ip), vehicle: saline with Tween-80
[14] = dose: 100.0 mg/kg/injection, schedule: Q04DX003 (ip), vehicle: saline
[15] = dose: 25.0 mg/kg/injection, schedule: Q01DX005 (ip), vehicle: saline with Tween-80
[16] = dose: 50.0 mg/kg/injection, schedule: Q01DX005 (ip), vehicle: saline with Tween-80
[17] = dose: 100.0 mg/kg/injection, schedule: Q01DX005 (ip), vehicle: saline with Tween-80
[18] = dose: 200.0 mg/kg/injection, schedule: Q01DX005 (ip), vehicle: saline with Tween-80
[19] = dose: 60.0 mg/kg/injection, schedule: Q01DX005 (ip), vehicle: Klucel (hydroxypropylcellulose) (HPC)
[20] = dose: 120.0 mg/kg/injection, schedule: Q01DX005 (ip), vehicle: Klucel (hydroxypropylcellulose) (HPC)
[21] = dose: 240.0 mg/kg/injection, schedule: Q01DX005 (ip), vehicle: Klucel (hydroxypropylcellulose) (HPC)
[22] = dose: 50.0 mg/kg/injection, schedule: Q01DX009 (ip), vehicle: saline

Measured: T/C

S[C@@H]1CCCN1
inactive: [1] 97 % of control | [2] 102 % of control | [3] 99 % of control

Cc1cc(C)nc(NS(=O)(=O)c2ccc(NC(=O)Nc3cc(F)ccc3F)cc2)n1
inactive: [4] 96 % of control | [5] 95 % of control | [6] 91 % of control

O=c1cccccc1[O][Sn]([Cl])([Cl])[O]c1cccccc1=O
inactive: dose: 25.0 mg/kg/injection, schedule: Q01DX001 (ip), vehicle: Klucel (hydroxypropylcellulose) (HPC) 97 % of control | dose: 50.0 mg/kg/injection, schedule: Q01DX001 (ip), vehicle: Klucel (hydroxypropylcellulose) (HPC) 99 % of control | [7] 99 % of control

CCOC(=O)CCC(=O)N(CCCNc1c2ccccc2nc2c(OC)cccc12)CCCNc1c2ccccc2nc2c(OC)cccc12
inactive: dose: 1.25 mg/kg/injection, schedule: Q01DX009 (ip), vehicle: water 111 % of control | dose: 2.5 mg/kg/injection, schedule: Q01DX009 (ip), vehicle: water 116 % of control | dose: 20.0 mg/kg/injection, schedule: Q01DX009 (ip), vehicle: water 97 % of control

O=C(O)CN(CCN(CC(=O)O)CC(=O)O)CC(=O)O.[Cl][Pd][Cl]
inactive: dose: 15.0 mg/kg/injection, schedule: Q01DX005 (ip), vehicle: saline 97 % of control | dose: 30.0 mg/kg/injection, schedule: Q01DX005 (ip), vehicle: saline 93 % of control | dose: 60.0 mg/kg/injection, schedule: Q01DX005 (ip), vehicle: saline 91 % of control and 95 % of control

CC1CCP(=O)(c2ccccc2)C1 (stereo not given)
inactive: [1] 104 % of control | [2] 105 % of control | [3] 105 % of control

CC1=NN(C(=O)c2ccccc2)C(=O)C1N=Nc1ccc(C(=O)O)cc1 (stereo not given)
inactive: [8] 110 % of control | [9] 95 % of control | [10] 104 % of control | [11] 99 % of control

Clc1ccc(S/N=C/c2ccccc2)cc1
inactive: [12] 113 % of control | [13] 114 % of control

N#CN=CN1CCN(c2ccccc2)CC1
inactive: [12] 100 % of control | [13] 97 % of control | dose: 200.0 mg/kg/injection, schedule: Q01DX009 (ip), vehicle: saline with Tween-80 99 % of control

O=[N+]([O-])c1c(Nc2ccccc2)nc(-c2ccccc2)nc1Nc1ccccc1
inactive: [14] 90 % of control | dose: 200.0 mg/kg/injection, schedule: Q04DX003 (ip), vehicle: saline 92 % of control | dose: 400.0 mg/kg/injection, schedule: Q04DX003 (ip), vehicle: saline 90 % of control

CC1NC(=O)N(C2CCCCCCC2)C1=O (stereo not given)
inactive: [9] 102 % of control | [10] 114 % of control | [11] 102 % of control

CC1(C)CCC2=C(O1)c1ccccc1C(=O)C2=O
inactive: dose: 12.5 mg/kg/injection, schedule: Q01DX009 (ip), vehicle: Klucel (hydroxypropylcellulose) (HPC) 96 % of control | dose: 25.0 mg/kg/injection, schedule: Q01DX009 (ip), vehicle: Klucel (hydroxypropylcellulose) (HPC) 105 % of control and 94 % of control | [4] 114 % of control and 96 % of control | [5] 115 % of control

C[C@]12CC[C@H](O)CC1=CC[C@@H]1[C@@H]2CC[C@]2(C)C(=O)CC[C@@H]12
inactive: [15] 94 % of control | [16] 90 % of control | [17] 91 % of control | [18] 90 % of control

O=C(O)C1CSCN1c1cccc[n+]1[O-] (stereo not given)
inactive: [15] 101 % of control | [16] 102 % of control | [17] 99 % of control

CCOC(=O)c1ccc(NC(=O)CCOc2ccccc2)cc1
inactive: [19] 88 % of control | [20] 88 % of control | [21] 87 % of control

CC(NC(=O)C(Cc1cnc[nH]1)NC(=O)OCc1ccccc1)C(=O)O (stereo not given)
inactive: [9] 96 % of control | [10] 96 % of control | [11] 96 % of control

Nc1ccc2oc3ccccc3c2c1
inactive: dose: 100.0 mg/kg/injection, schedule: Q04DX003 (ip), vehicle: saline with Tween-80 100 % of control | dose: 200.0 mg/kg/injection, schedule: Q04DX003 (ip), vehicle: saline with Tween-80 103 % of control

C[CH2][Sn]([c]1ccccc1)[c]1ccccc1
inactive: dose: 12.5 mg/kg/injection, schedule: Q01DX009 (ip), vehicle: saline 109 % of control | dose: 25.0 mg/kg/injection, schedule: Q01DX009 (ip), vehicle: saline 114 % of control | dose: 25.0 mg/kg/injection, schedule: Q04DX003 (ip), vehicle: saline 108 % of control | [22] 114 % of control and 116 % of control | dose: 50.0 mg/kg/injection, schedule: Q04DX003 (ip), vehicle: saline 115 % of control | [14] 109 % of control

CC(C)C12OC1C1OC13C1(C)CCC4=C(COC4=O)C1CC1OC13C2=O (stereo not given)
inactive: dose: 2.5 mg/kg/injection, schedule: Q01DX005 (ip), vehicle: saline + alcohol 110 % of control | dose: 5.0 mg/kg/injection, schedule: Q01DX005 (ip), vehicle: saline + alcohol 100 % of control | dose: 20.0 mg/kg/injection, schedule: Q01DX005 (ip), vehicle: saline + alcohol 114 % of control

CCCCCCCCCCCCCCCCCC(=O)NC1c2ccccc2Oc2ccccc21
inactive: [16] 87 % of control | [17] 90 % of control | [18] 92 % of control

O=C(Nc1ccc(N=C(NC2CCCCC2)c2ccccc2)cc1)c1ccc(C(=O)Nc2ccc(N=C(NC3CCCCC3)c3ccccc3)cc2)cc1
inactive: dose: 12.5 mg/kg/injection, schedule: Q01DX005 (ip), vehicle: Klucel (hydroxypropylcellulose) (HPC) 104 % of control | [8] 103 % of control | [9] 104 % of control and 111 % of control | [10] 91 % of control | [11] 106 % of control

O=C(NC(=O)c1ccccc1F)Nc1ccc(Cl)cc1
inactive: [4] 101 % of control | [5] 100 % of control | [6] 91 % of control

ClCc1nnc2cccc(Cl)n12
inactive: [7] 102 % of control | dose: 200.0 mg/kg/injection, schedule: Q01DX001 (ip), vehicle: Klucel (hydroxypropylcellulose) (HPC) 96 % of control | dose: 400.0 mg/kg/injection, schedule: Q01DX001 (ip), vehicle: Klucel (hydroxypropylcellulose) (HPC) 99 % of control

CCOC(=O)c1cnc2cc3c(cc2c1N=[N+]=[N-])OCO3
inactive: dose: 60.0 mg/kg/injection, schedule: Q01DX005 (ip), vehicle: saline with Tween-80 95 % of control | dose: 120.0 mg/kg/injection, schedule: Q01DX005 (ip), vehicle: saline with Tween-80 90 % of control | dose: 240.0 mg/kg/injection, schedule: Q01DX005 (ip), vehicle: saline with Tween-80 87 % of control

CC(C)CC(NC(=O)OCCc1ccccn1)C(=O)NC(Cc1ccccc1)C(=O)OC(C)(C)C (stereo not given)
inactive: [19] 101 % of control | [20] 95 % of control | [21] 94 % of control

N#CNC(c1ccccc1)(c1ccccc1)c1ccccc1
inactive: [16] 98 % of control | [17] 98 % of control | [18] 94 % of control

CCCCCCN=C(N)N/N=C(\C)c1ccc2c(c1)Cc1cc(/C(C)=N/NC(N)=NCCCCCC)ccc1-2
inactive: dose: 6.25 mg/kg/injection, schedule: Q04DX002 (ip), vehicle: saline with Tween-80 98 % of control | dose: 12.5 mg/kg/injection, schedule: Q04DX002 (ip), vehicle: saline with Tween-80 107 % of control | dose: 25.0 mg/kg/injection, schedule: Q04DX002 (ip), vehicle: saline with Tween-80 109 % of control | dose: 50.0 mg/kg/injection, schedule: Q04DX002 (ip), vehicle: saline with Tween-80 116 % of control

CCOC(=O)CC1(O)CSC(=C(C(=O)OCC)C(=O)OCC)N1c1ccccc1 (stereo not given)
inactive: [16] 98 % of control | [17] 91 % of control | [18] 102 % of control

C=C(CC)C(=O)OCC
inactive: [22] 95 % of control | dose: 100.0 mg/kg/injection, schedule: Q01DX009 (ip), vehicle: saline 102 % of control | dose: 200.0 mg/kg/injection, schedule: Q01DX009 (ip), vehicle: saline 104 % of control

OC1=CC(=S)NC(c2ccccc2)C1 (stereo not given)
inactive: [9] 99 % of control | [10] 106 % of control | [11] 108 % of control

COc1ccc2c(c1)CC(C)[N+]([O-])=C2C(F)(F)F (stereo not given)
inactive: [16] 99 % of control | [17] 102 % of control | [18] 104 % of control
